Test results published in US7413903B2, “Methods of regulating differentiation in stem cells” (ES Cell International PTE Ltd., priority 2002, dated 2008).

Tests used:
hES cells [1] = test: GCTM-2 quantification (alkaline phosphatase-coupled secondary antibody, OD 405 nm); format: cell-based, human; settings: for effect of inhibitor on the effect of PDGF and S1P on GCTM2 expression: 7 days, U0126, DMS 3 μM; for more GCMT2+ than the control cells / GCTM2 levels, PDGF isoform added with S1P: Example 1; for more GCMT2+ than the control cells: on MEF, 8 days, S1P 10 μM; for more GCMT2+ than the control cells / more GCMT2+ than the controls: serum-free; for more GCMT2+ than the controls: treated for 2 weeks
From the text: hES-3 cells plated with MEF, were fixed in ethanol and immunostained with GCTM-2 and then with an alkaline phosphatase-coupled secondary antibody (Dako). The activity of alkaline phosphatase was detected by adding a solution of 4-nitrophenyl phosphate (Roche, Mannheim, Germany), followed by reading the optical density (OD) at 405 nm. In order to validate the technique as a relevant indicator of the proportion of GCTM-2 positive cells, standard curves were done with the teratocarcinoma cell line GCT27C4, known to express GCTM-2.
Cells were fixed in 100% ethanol and immunostained with GCTM-2 followed by alkaline phosphatase-coupled secondary antibodies (Dako). Alkaline phosphatase activity was detected by adding a solution of 4-nitrophenyl phosphate (Roche), and the concentration of the reaction product was determined by reading the optical density (OD) at 405 nm. In order to validate the technique as an accurate indicator of the proportion of GCTM-2 positive cells, standard curves were carried out with the embryonal carcinoma cell line GCT27C4, known to express GCTM-2 ^20.

ERK1/2 (Erk1 and Erk2) = test: ERKs phosphorylation in hES cells (Western blot, anti-active MAP kinase); format: cell-based, human; settings: for phosphorylation of ERKs in hES cells: 5 min incubation, LPA, PDGF 20 ng/ml, serum-depleted, without MEF
Protocol: hES-3 cells plated without MEF for 24 hrs were depleted of serum for a further 18 hrs. Cells pre-treated or not with U0126 (Sigma, 30 μM, 1 hr), were incubated in the presence of the different agents for 5 min and were lysed by removal of the supernatants and addition of a reducing loading buffer containing 1 mM sodium orthovanadate (Sigma). Protein lysates (approx. 80 μg) were separated by SDS-polyacrylamide gel electrophoresis (10% polyacrylamide, w/v), transferred to nitrocellulose (Hybond-nitrocellulose, Amersham) and immunoblotting was carried out using rabbit polyclonal anti-active mitogen-activated protein (MAPK) antibodies raised against a dually phosphorylated MAPK peptide (Promega, Madison, Wis., USA). Peroxidase-coupled secondary antibody (Dako) was detected by exposure of autoradiographic films in the presence of a chemiluminescent detection reagent (ECL, Amersham). Stripping of antibodies was achieved and membranes were then reprobed with rabbit polyclonal anti-ERK1/2 antibodies (Promega), and then with peroxidase-coupled secondary antibodies (Dako). Membranes probed with either rabbit polyclonal anti-active p38 (Promega) or rabbit polyclonal anti-active JNK (Promega) antibodies were also performed, using the same procedure as described
For immunoblot analysis, cells were transferred into 24 well plates (8 colonies per well) without MEFs, and 24 hr later, were grown in the absence of serum for 18 hrs.
In some experiments, cells were pre-treated for 1 hr with U0126 (30 μM) or for 18 hrs with PTX (100 μg/ml).
hES3 cells were lysed following removal of the supernatants by addition of a reducing loading buffer (2% SDS, 62.5 mM Tris pH 6.8, 0.1 M DTT, 0.01% bromophenol blue) containing 1 mM sodium orthovanadate. Samples were boiled for 10 min and centrifuged at 13000 g for 15 min, and protein lysates (approx. 80 μg) were separated by SDS-polyacrylamide gel electrophoresis (10% polyacrylamide, w/v). Proteins were transferred to nitrocellulose (Hybond-ECL, Amersham) and immunoblotting was carried out with rabbit polyclonal anti-active mitogen-activated protein (MAPK) antibodies raised against a dually phosphorylated MAPK peptide (Promega, Madison, Wis., USA). Peroxidase-coupled secondary antibody (Dako) was detected by exposure of autoradiographic films in the presence of a chemiluminescent detection reagent (ECL, Amersham). Stripping of antibodies was achieved by incubating the membrane during 30 min at 50° C. in a buffer containing 100 mM mercaptoethanol, 2% SDS, 62.5 mM Tris-HCl pH 6.7. The membrane was then reprobing with rabbit polyclonal anti-ERK1/2 antibodies (Promega), and then with peroxidase-coupled secondary antibodies (Dako).

hES cells [2] = test: Direct observation of hES cell colonies in serum-free medium (spontaneous differentiation); format: cell-based, human; settings: for colony morphology / spontaneous differentiation vs control: Example 1, PDGF 20 ng/ml; for colony morphology / spontaneous differentiation vs control / colony size, morphology / spontaneous differentiation vs controls: on MEF, serum-free; for colony morphology / spontaneous differentiation vs control / colony size, morphology / spontaneous differentiation vs controls / colony growth / differentiation vs control: LPA up to 50 μM; for colony size, morphology / spontaneous differentiation vs controls: Example 2, 2 weeks, PDGF-AB 20 ng/ml; for colony growth / differentiation vs control: 12 days
Protocol: (§1) hES-3 cells were cultured as previously described^1. The serum-free culture medium consisted of DMEM (without sodium pyruvate, glucose 4500 mg/l, Invitrogen, Mount Waverley, VIC, Australia) supplemented with insulin/transferrin/selenium 1%, β-mercaptoethanol 0.1 mM, NEAA 1%, glutamine 2 mM, Hepes 25 mM, penicillin 50 U/ml and streptomycin […] (all from Invitrogen). Medium was changed every 2 days and cells were passaged every week. S1P and dihydro-S1P were obtained from Biomol (Plymouth Meeting, Pa., USA) and were dissolved in methanol. LPA was obtained from Sigma (Castle Hill, NSW, Australia) and was dissolved in ethanol. Extemporaneous dilutions of all lipids were made in water containing 0.1% fatty acid-free bovine serum albumin (BSA) (Sigma). Human PDGF-AB, PDGF-AA, PDGF-BB were from PreproTech Inc. (Rocky Hill, N.J., USA). RT-PCR Experiments.
as §1, with “Media” for “Medium”, “USA).” for “USA) and were dissolved in methanol.”, “Australia).” for “Australia) and was dissolved in ethanol.”, “(Sigma). S1P and dihydro-S1P were used at […].” for “(Sigma).”, “USA) and were used at 20 ng/ml.” for “USA). RT-PCR Experiments.”
For direct observation, hES-3 cells were coated into 12-well plates (3 colonies per well), with or without mouse embryonic feeders (MEFs). The day following the plating, cells were incubated with the different agents in serum free medium containing insulin, transferring and selenium. Media was changed the 2nd day and then every 2 days.

hES cells [3] = test: GCTM-2 / PCNA double immunostaining and cell counting of mechanically dissociated hES cells; format: cell-based, human; settings: for percentage of cells GCTM2+: mechanically dissociated, PDGF 10 ng/ml
Protocol: In some experiments, hES-3 cells plated onto 8-well chamber slides, with or without MEF, were fixed in ethanol or paraformaldehyde (for PDGFR) the day after plating. In others, hES-3 cells were mechanically dissociated, in order to obtain a monolayer culture and then plated onto 8-well chamber slides without MEF and were fixed in ethanol 4 days after the first treatment. Immunostaining was performed using the following antibodies: anti human PDGFR-α or PDGFR-β(R&D Systems Inc.), GCTM-2, and/or PCNA (Chemicon, Boronia, VIC, Australia), TRA-1-60, Oct-4. Nuclei were evidenced by Hoechst-33342. Slides were mounted and observed by fluorescent microscopy with a Leica microscope at X10, X20 and X40. Specificity was verified by the absence of any staining in the negative controls. In some experiments, cells were counted to determine the ratio of cells within the global population.
For immunostaining, hES-3 cells were coated on chamber slides after mechanical dissociation, in order to obtain a monolayer culture. The day following the plating, cells were incubated with the different agents in a media depleted in serum. Media was changed the 2nd day and the cells were fixed 4 days after the first treatment.
Cells were washed in PBS, fixed with MeOH, and immunostaining was performed, using the specific stem cell marker antibody GCTM-2, and the specific cell proliferation marker PCNA. Cells were then washed and the nucleuses were stained with Hoechst-33342 (1 μg/ml). Slides were mounted and then observed by fluorescent microscopy. Cells were then counted in order to determine the ratio of proliferating stem cells within the overall population.

[4] = system: SPK activity in hES cells; test: Sphingosine kinase activity in hES cells after incubation with PDGF; format: cell-based, human; settings: PDGF 20 ng/ml
Protocol: hES-3 cells plated without MEF for 24 hr and depleted of serum for a further 18 hr were incubated in the presence of PDGF (20 ng/ml) for various time periods and were harvested and lysed by sonication (2 W for 30 s at 4° C.) in lysis buffer containing 50 mM Tris/HCl (pH 7.4), 10% glycerol, 0.05% Triton X-100, 150 mM NaCl, 1 mM dithiothreitol, 2 mM Na3VO4, 10 mM NaF, 1 mM EDTA and protease inhibitors (Complete™, Roche, Mannheim, Germany). SPK activity was determined using D-erythro-sphingosine and […] as substrates, as previously described^19. Protein concentrations in cell homogenates were determined with Coomassie Brilliant Blue reagent (Bio-Rad, Regent Park, NSW, Australia) using bovine serum albumin as standard.

SPK in MEF = test: Sphingosine kinase activity in MEF after incubation with PDGF; format: cell-based, mouse; settings: PDGF 20 ng/ml
[5] = Example 4, on MEFs, serum-depleted, S1P 10 μM
[6] = Example 1, 4 days, no MEF, no serum, S1P 10 μM
[7] = Example 1, 4 days, no MEF, no serum

CCCCCCCCCCCCC/C=C/[C@@H](O)[C@H](CO)N(C)C [DMS, dimethylsphingosine]
effect of inhibitor on the effect of PDGF and S1P on GCTM2 expression (hES cells [1]): inhibited the effect of PDGF and S1P

CCCCCCCCCCCCC/C=C/[C@@H](O)[C@@H](N)COP(=O)(O)O [S1P, sphingosine-1-phosphate]
more GCMT2+ than the control cells (hES cells [1]; PDGF 20 ng/ml): 16.6±4.1%
more GCMT2+ than the controls (hES cells [1]; Example 2): 18.0±17.0%
concentration dependence of ERKs stimulation (ERK1/2 (Erk1 and Erk2); 5 min, various concentrations of S1P): in a concentration dependant manner
phosphorylation of ERKs in hES cells (ERK1/2 (Erk1 and Erk2); S1P 10 μM): stimulated the phosphorylation of ERKs
duration of ERKs stimulation (ERK1/2 (Erk1 and Erk2); S1P 10 μM): at least 60 min
colony morphology / spontaneous differentiation vs control (hES cells [2]; 8 days, S1P 10 μM): the colonies appeared flatter and less differentiated
colony size, morphology / spontaneous differentiation vs controls (hES cells [2]; S1P 10 μM): the colonies appeared flatter and less differentiated
colony morphology / differentiation vs control condition (hES cells [2]; Example 4, on MEFs, serum-depleted, 8 days, S1P 10 μM): the colonies were more compact and less differentiated
colony growth / differentiation vs control (hES cells [2]; [5]): more obvious after 12 days of treatment
effect on cell differentiation, hES cells grown without MEFs (hES cells [2]; Example 4): inhibitory effect
percentage of cells GCTM2+ (hES cells [3]; [6]): 47.9±3.8%
proliferating rate of hES cells (PCNA) vs control (hES cells [3]; [7]): no statistically significant difference
proliferating rate of hES cells (PCNA) vs control (hES cells [3]; Example 4, 4 days without serum, S1P 10 μM): no marked difference
cells GCTM-2 positive (hES cells [3]; Example 4, 4 days without serum, S1P 10 μM (control 16%)): 68%

N#CC(=C(/N)Sc1ccccc1N)/C(C#N)=C(\N)Sc1ccccc1N [U0126]
effect of inhibitor on the effect of PDGF and S1P on GCTM2 expression (hES cells [1]): totally inhibited
effect of MEK inhibitor on agonist-stimulated phosphorylation of ERKs (ERK1/2 (Erk1 and Erk2); U0126 30 μM, 1 hr pre-treatment): totally inhibited

CCCCCCCCCCCCCCC[C@@H](O)[C@@H](N)COP(=O)(O)O [dihydro-S1P, dihydrosphingosine-1-phosphate]
GCTM2 expression (hES cells [1]; Example 2, 2 weeks, dihydro-S1P, PDGF 20 ng/ml): 223.0±27.0 % of control

PDGF-AA: Human platelet-derived growth factor isoform AA; only binds to PDGFR-a
GCTM2 levels, PDGF isoform added with S1P (hES cells [1]): 120.5±4.5 % of control
GCTM2 expression, PDGF isoform with S1P (hES cells [1]; Example 2, 2 weeks, isoform 20 ng/ml together with S1P): 220.3±49.0 % of control

PDGF: Human platelet-derived growth factor, isoform AB, from PreproTech; ligand of class III tyrosine kinase receptor
duration of enhanced SPK activity [4]: at least 60 min
SPK activity relative to basal values ([4]; after 30 min of incubation): 1.6 fold
GCTM2 levels, PDGF isoform added with S1P (hES cells [1]): 125.7±9.7 % of control
more GCMT2+ than the control cells (hES cells [1]; PDGF 20 ng/ml): 16.6±7.0%
more GCMT2+ than the controls (hES cells [1]; Example 2): 50.3±18.4%
activation of SPK in MEF (SPK in MEF): did not induce a significant statistical activation of SPK
phosphorylation of ERKs in hES cells (ERK1/2 (Erk1 and Erk2); S1P 10 μM): stimulated the phosphorylation of ERKs
colony morphology / spontaneous differentiation vs control (hES cells [2]; 8 days, S1P 10 μM): the colonies appeared flatter and less differentiated
colony size, morphology / spontaneous differentiation vs controls (hES cells [2]; S1P 10 μM): the colonies appeared flatter and less differentiated
percentage of cells GCTM2+ (hES cells [3]; [6]): 53.7±13.2%
proliferating rate of hES cells (PCNA) vs control (hES cells [3]; [7]): no statistically significant difference

lysophosphatidic acid [LPA]
phosphorylation of ERKs in hES cells (ERK1/2 (Erk1 and Erk2); S1P 10 μM): stimulated the phosphorylation of ERKs
colony morphology / spontaneous differentiation vs control (hES cells [2]; 8 days, S1P 10 μM): did not have an obvious effect on growth of the colonies
colony size, morphology / spontaneous differentiation vs controls (hES cells [2]; S1P 10 μM): no obvious effect on size or morphology of hES cell colonies
colony growth / differentiation vs control (hES cells [2]; [5]): did not seem to affect the growth of the colonies
effect on cell differentiation, hES cells grown without MEFs (hES cells [2]; Example 4): lack of effect
